Columns and labels:
Experiment in all cases: normalised response (% of control), CellTiter-Glo; higher = more viable cells (100 = DMSO, 0 = benzethonium chloride kill control)
Conditions in all cases: incubation time: 72 h
BT-474 = tested on: BT-474
Outline: (§1)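 Breast cancer cell lines (20 µl suspension) were seeded into 384-well plates holding compound at 5 concentrations in 10-fold steps over a compound-specific 10,000-fold range, then incubated 72 h. CellTox Green fluorescence (485/520 nm) was read first, then CellTiter-Glo luminescence after 10 min at room temperature. Each plate was normalised to 0.1 % DMSO (100) and a positive kill control (0). Each value is the normalised signal at a single concentration of the series.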

BT-549 = tested on: BT-549
Outline: as §1

CAL-120 = tested on: CAL-120
Outline: as §1

CAL-148 = tested on: CAL-148
Outline: as §1

CAL-51 = tested on: CAL-51
Outline: as §1

CAL-85-1 = tested on: CAL-85-1
Outline: as §1

DU-4475 = tested on: DU-4475
Outline: as §1

HCC1143 = tested on: HCC1143
Outline: as §1

HCC1599 = tested on: HCC1599
Outline: as §1

HCC1937 = tested on: HCC1937
Outline: as §1

HDQ-P1 = tested on: HDQ-P1
Outline: as §1

Hs578T = tested on: Hs578T
Outline: as §1

MCF-10A = tested on: MCF-10A
Outline: as §1

MDA-MB-231 = tested on: MDA-MB-231
Outline: as §1

MDA-MB-436 = tested on: MDA-MB-436
Outline: as §1

MDA-MB-453 = tested on: MDA-MB-453
Outline: as §1

MDA-MB-468 = tested on: MDA-MB-468
Outline: as §1

MFM-223 = tested on: MFM-223
Outline: as §1

SK-BR-3 = tested on: SK-BR-3
Outline: as §1

Compound | normalised response (BT-474) | normalised response (BT-549) | normalised response (CAL-120) | normalised response (CAL-148) | normalised response (CAL-51) | normalised response (CAL-85-1) | normalised response (DU-4475) | normalised response (HCC1143) | normalised response (HCC1599) | normalised response (HCC1937) | normalised response (HDQ-P1) | normalised response (Hs578T) | normalised response (MCF-10A) | normalised response (MDA-MB-231) | normalised response (MDA-MB-436) | normalised response (MDA-MB-453) | normalised response (MDA-MB-468) | normalised response (MFM-223) | normalised response (SK-BR-3)
CCn1c(-c2nonc2N)nc2cnc(Oc3cccc(NC(=O)c4ccc(OCCN5CCOCC5)cc4)c3)cc21 (1 nM) | 95.1% | 108% | 41.8% | 98.6% | 114% | 101% | 94.3% | 103% | 103% | 104% | 104% | 99.5% | 102% | 102% | 104% | 101% | 95.6% | 96.8% | 102%
Nc1cc(C(F)(F)F)c(-c2cc(N3CCOCC3)nc(N3CCOCC3)n2)cn1 [Buparlisib] (1 nM) | 98.8% | 102% | 103% | 95% | 112% | 92.3% | 97.7% | 92.6% | 90.2% | 97.1% | 97.3% | 97.3% | 98.8% | 98.7% | 98.9% | 101% | 96.3% | 97.1% | 101%
Nc1cc(C(F)(F)F)c(-c2cc(N3CCOCC3)nc(N3CCOCC3)n2)cn1 [Buparlisib] (10 nM) | 97.3% | 100% | 104% | 97% | 113% | 96.5% | 97.1% | 97.2% | 108% | 93.3% | 99% | 98.4% | 98.2% | 103% | 101% | 104% | 101% | 97.3% | 110%
COc1cc2/c(=N/c3ccc(Br)cc3F)nc[nH]c2cc1OCC1CCN(C)CC1 [Vandetanib] (0.1 nM) | 89.3% | 105% | 90.8% | 76.8% | 115% | 90.3% | 91% | 88.7% | 82.4% | 88.2% | 93.2% | 98.6% | 72.8% | 97.3% | 80.6% | 93.6% | 93.2% | 85.2% | 78%
CNC(=O)c1ccc(N2C(=S)N(c3ccc(C#N)c(C(F)(F)F)c3)C(=O)C2(C)C)cc1F [Enzalutamide] (1 nM) | 97.4% | 107% | 98.8% | 102% | 109% | 95.6% | 98.9% | 98.5% | 108% | 103% | 100% | 103% | 105% | 95% | 102% | 103% | 101% | 99.6% | 108%
c1ccc2c(CCNc3ccc(Nc4ccncc4)cc3)c[nH]c2c1 [Serdemetan] (10 nM) | 87.6% | 105% | 91.5% | 92% | 105% | 106% | 102% | 93.4% | 115% | 99.4% | 98.7% | 96.5% | 100% | 97.3% | 97.9% | 105% | 95.2% | 98.3% | 94.3%
COc1cc2ncnc(Nc3ccc(F)c(Cl)c3)c2cc1OCCCN1CCOCC1 [Gefitinib] (10 nM) | 100% | 98.6% | 96.2% | 105% | 103% | 96.6% | 100% | 98.1% | 89.5% | 98.3% | 97% | 103% | 95.6% | 98% | 103% | 108% | 95.9% | 108% | 107%
CNC(=O)c1ccc(N2C(=S)N(c3ccc(C#N)c(C(F)(F)F)c3)C(=O)C23CCC3)cc1F [RD162] (1 nM) | 97% | 93.8% | 98% | 104% | 108% | 96.2% | 102% | 93.7% | 107% | 93.8% | 95.9% | 102% | 102% | 106% | 101% | 104% | 106% | 99.9% | 107%
CC(C)C[C@@H](C(=O)N[C@H](C(=O)OC1CCCC1)c1ccccc1)[C@H](O)C(=O)NO [Tosedostat] (10 nM) | 95.3% | 88.2% | 92.6% | 111% | 125% | 92.2% | 99.5% | 97.2% | 114% | 87.9% | 99.8% | 94.4% | 102% | 94.4% | 96.1% | 93.9% | 78.5% | 104% | 113%
COc1cc2c(NC3CCN(C(C)C)CC3)nc(N3CCC(F)(F)CC3)nc2cc1OCCCN1CCCC1 [UNC0642] (10 nM) | 97.7% | 97.7% | 95.2% | 88.6% | 86.3% | 96.6% | 94.6% | 95.3% | 96.5% | 98.2% | 97.4% | 107% | 102% | 95.3% | 101% | 92% | 89% | 88.4% | 108%
Cc1cc(Nc2cc(CN3CCOCC3)c3nc(C)c(Cc4ccc(Cl)cc4F)n3n2)n[nH]1 [Gandotinib] (1 nM) | 108% | 105% | 94.4% | 111% | 93.5% | 104% | 106% | 97.8% | 109% | 100% | 97.3% | 100% | 107% | 98.1% | 97.4% | 103% | 112% | 99.7% | 110%
CNC(=O)c1cc(Oc2ccc(NC(=O)Nc3ccc(Cl)c(C(F)(F)F)c3)c(F)c2)ccn1 [Regorafenib] (10 nM) | 111% | 106% | 94% | 109% | 108% | 100% | 105% | 100% | 108% | 96% | 102% | 101% | 113% | 95.2% | 104% | 117% | 97.9% | 101% | 110%
CNC(=O)c1cccc(-c2ccc3c(N4CCOC[C@@H]4C)nc(N4CCOC[C@@H]4C)nc3n2)c1 [AZD2014] (10 nM) | 99.5% | 96.8% | 93.5% | 106% | 105% | 97.6% | 104% | 99.8% | 115% | 101% | 98.8% | 104% | 111% | 97.7% | 98.5% | 101% | 104% | 106% | 99%
O=C(Nc1cccnc1)N1CCC(Cc2cccc(Oc3ccc(C(F)(F)F)cn3)c2)CC1 [PF-3845] (10 nM) | 110% | 96.7% | 105% | 112% | 88.9% | 103% | 105% | 106% | 96.9% | 103% | 97.3% | 108% | 115% | 109% | 100% | 106% | 101% | 119% | 96.7%
CCc1c2c(nc3ccc(OC(=O)N4CCC(N5CCCCC5)CC4)cc13)-c1cc3c(c(=O)n1C2)COC(=O)[C@]3(O)CC [Irinotecan] (10 nM) | 100% | 90.8% | 94.2% | 93.7% | 114% | 100% | 106% | 99.7% | 97.5% | 94.8% | 98.4% | 97.7% | 105% | 97.7% | 92.7% | 107% | 105% | 98.7% | 109%
NC(=O)c1ccc(I)c([N+](=O)[O-])c1 [Iniparib] (10 nM) | 91.2% | 94.2% | 91.9% | 83.2% | 85.4% | 90.6% | 93.5% | 90% | 94.2% | 95.4% | 89.2% | 92.8% | 81.3% | 92.6% | 87.2% | 77.9% | 90.7% | 84.2% | 74.1%
CO[C@H]1C[C@@H]2CC[C@@H](C)[C@@](O)(O2)C(=O)C(=O)N2CCCC[C@H]2C(=O)O[C@H]([C@H](C)C[C@@H]2CC[C@@H](OP(C)(C)=O)[C@H](OC)C2)CC(=O)[C@H](C)/C=C(\C)[C@@H](O)[C@@H](OC)C(=O)[C@H](C)C[C@H](C)/C=C/C=C/C=C/1C [Ridaforolimus] (0.01 nM) | 107% | 101% | 103% | 105% | 109% | 99.8% | 103% | 102% | 113% | 99.6% | 109% | 96.8% | 104% | 103% | 103% | 109% | 102% | 105% | 111%
CN(C)CCOc1ccc(/C(=C(/CCCl)c2ccccc2)c2ccccc2)cc1 [Toremifene] (10 nM) | 101% | 99% | 105% | 109% | 130% | 95.1% | 108% | 98.2% | 91.3% | 98.6% | 99.2% | 103% | 105% | 96.8% | 97.1% | 120% | 103% | 106% | 117%
CNC(=O)c1cccc(-c2ccc3c(N4CCOC[C@@H]4C)nc(N4CCOC[C@@H]4C)nc3n2)c1 [AZD2014] (1 nM) | 97.5% | 102% | 98.4% | 111% | 125% | 95% | 99.4% | 104% | 92% | 101% | 98% | 101% | 114% | 108% | 89.7% | 105% | 103% | 106% | 115%
CN(C)c1nc(N(C)C)nc(N(C)C)n1 [Altretamine] (10 nM) | 101% | 100% | 97.9% | 109% | 101% | 101% | 100% | 105% | 103% | 99.3% | 98.9% | 110% | 109% | 101% | 96.5% | 115% | 104% | 109% | 113%
